The results in this text go back to publication PMC9064607 (Biochemistry, 2022).

In the assay the target is T1, Peptidylglycine monooxygenase (PHM) (Rattus norvegicus, UniProt P14925).
T1 sequence (P14925 42-356): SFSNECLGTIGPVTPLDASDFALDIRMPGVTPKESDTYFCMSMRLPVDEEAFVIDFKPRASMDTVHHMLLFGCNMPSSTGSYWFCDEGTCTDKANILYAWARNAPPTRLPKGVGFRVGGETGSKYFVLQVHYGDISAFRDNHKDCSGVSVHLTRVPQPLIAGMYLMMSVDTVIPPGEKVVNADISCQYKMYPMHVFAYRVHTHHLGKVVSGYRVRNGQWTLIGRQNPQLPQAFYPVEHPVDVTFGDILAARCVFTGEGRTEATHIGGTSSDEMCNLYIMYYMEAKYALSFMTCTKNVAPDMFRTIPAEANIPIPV
As to the kind of experiment: chemical-quench product formation versus ascorbate, fitted to a binding event. The class given is biochemical.

A word on the Kd: it is the constant that tells how readily two partners part at equilibrium. Low readings indicate tighter binding, high ones weaker binding. Take `O=C1O[C@H]([C@@H](O)CO)C(O)=C1O` [ascorbate]: the affinity, expressed as Kd, was 117 µM.
